Values joined by “and” are separate entries in the source; they are usually repeats but may differ in a detail not shown here. Equal values may be shown once. Read-outs that look alike come from different tables or passages of the source.
Experiments:
[1] = test system: P. falciparum 3D7; type: cell-based; details: P. falciparum 3D7 (CQ-sensitive), 48 h; read-out: IC50 ± SD (n = 3)
Procedure: These second-generation conjugates (synthesis routes depicted in Scheme 2; Scheme 3) were evaluated in vitro, alongside the commercial reference drug, CQ (1), their parent building blocks, TP10 and Cq (4), and first-generation conjugate 5a, regarding their ability to inhibit growth of blood-stage parasites of the CQ-sensitive P. falciparum 3D7 strain (Table 3). The primaquine analogues of Cq conjugates 5a and 14, respectively, PQ-C4-TP10 (3a) and TP10-S-S-PQ (Figure 2, 14′), were also included for comparison; the synthesis of these conjugates, 3a and 14′, has been reported elsewhere. Of note, substantial hemolysis was detected upon erythrocyte exposure to some of the test conjugates, particularly at the higher concentrations tested. In view of this, emolysis assays were also conducted on cultures of both hRBC and PiRBC (Table 3).
P. falciparum 3D7 strain (chloroquine and mefloquine susceptible) was continuously cultured as previously described. Parasitemia was monitored daily by microscopic examination of Giemsa (MERCK, Sigma-Aldrich) stained thin blood smears.
Synchronized ring-stage P. falciparum (3% hematocrit, 1% parasitemia) were incubated in a microtiter plate for 48 h in the presence of two-fold serial dilutions of TP10 and derived conjugates 11–15, in the 10–10000 nM concentration range. Cultures incubated with three-fold serial dilutions of chloroquine bisphosphate, and also of its analogue 4, in the 0.1–8000 nM concentration range, were included for comparison. Culture without test compounds was also added to the microtiter plate, as negative control. After incubation, 100 μL of a solution of SYBR Green (Thermo Fisher; SG; 0.001% v/v in PBS) was added to each well and plates incubated for another 60 min under standard culture conditions. Plates were then centrifuged at 2500 rpm for 2 min, the supernatant was discarded, and cells were re-suspended in 100 μL of PBS. Fluorescence was collected in a multi-mode microplate reader (Triad, Dynex Technologies) with excitation at 485 nm and emission at 535 nm. Fluorescence values were normalized (to take into account the normal growth of the parasite) and then plotted against logC. IC50 were determined using GraphPad Prism 6.

[2] = test system: hRBC; assay: In vitro hemolytic activity on healthy erythrocytes; type: cell-based; details: cultures of hRBC and PiRBC, summary of Table 3
Procedure: (§1) For positive and negative controls, 1% Triton X-100 and PBS were added, respectively. After this period, the plates were centrifuged and supernatants transferred to another plate. Supernatant absorbance at 450 nm was assessed in a multi-mode microplate reader (Triad, Dynex Technologies, Chantilly, VA, USA) and values were treated using the following equation (1):(1) % Hemolysis=Abs−Abs(negative control)/Abs(positive control)−Abs(negative control)

[3] = as above; type: cell-based; details: healthy erythrocytes (hRBC); 10 µM, 1 h, hRBC only; dash with footnote c = hemolysis not detected; read-out: % hemolysis at 10 µM ± SD (n = 3), hRBC
Procedure: as §1

[4] = In vitro hemolytic activity on Plasmodium-infected erythrocyte cultures; type: cell-based; details: cultures with 3% PiRBC, dash with footnote c = hemolysis not detected, read-out: % hemolysis at 10 µM ± SD (n = 3), PiRBC
Procedure: as §1

[5] = test system: P. falciparum W2; type: cell-based; details: P. falciparum W2 (CQ-resistant), 48 h, n = 3
Procedure: All conjugates and their respective parent CPP (Table 1), were screened in vitro for their antiplasmodial activity, using the CQ-resistant P. falciparum W2 strain. The primaquine analogue to 5a, i.e., conjugate 3 where the CPP is TP10, PQ-C4-TP10 (3a), was also included in the study for comparison.
Synchronized ring-stage P. falciparum parasites (W2 strain) were incubated with test compounds for 48 h in Roswell Park Memorial Institute (RPMI) 1640 medium containing 10% human serum or 0.5% Albumax serum substitute. Parasites were then fixed with 1% formaldehyde in phosphate-buffered saline (PBS), pH 7.4, for […] at RT and labeled with YOYO-1 (1 nM; molecular probes) in 0.1% Triton X-100 in PBS. Parasitemias were determined by flow cytometry, from dot plots (forward scatter versus fluorescence). For 50% inhibitory concentration (IC50) determinations, dose-response studies were performed, with the values normalized to percent control activity, and IC50s were calculated using GraphPad Prism, with data fitted by nonlinear regression.

[6] = test system: P. falciparum 3D7; details: cited from earlier work
[7] = test system: P. falciparum W2; details: cited from earlier work

Molecule | IC50 [1] [nM] | hemolytic activity (in words) [2] | hemolysis at 1 h, 10 µM [3] [%] | hemolysis at 1 h, 10 µM [4] [%] | IC50 [5] | IC50 [6] [nM] | IC50 [7] [nM]
CC[C@H](C)[C@H](NC(=O)[C@H](CCCCN)NC(=O)[C@H](CCCCN)NC(=O)[C@H](C)NC(=O)[C@H](CC(C)C)NC(=O)[C@H](C)NC(=O)[C@H](C)NC(=O)[C@H](CC(C)C)NC(=O)[C@H](C)NC(=O)[C@H](CCCCN)NC(=O)[C@H](CC(C)C)NC(=O)[C@H](CC(N)=O)NC(=O)[C@@H](NC(=O)[C@H](CCCCN)NC(=O)CNC(=O)[C@H](CC(C)C)NC(=O)[C@H](CC(C)C)NC(=O)[C@H](Cc1ccc(O)cc1)NC(=O)CNC(=O)[C@H](C)N)[C@@H](C)CC)C(=O)N[C@@H](CC(C)C)C(N)=O [TP10] | 1900 ± 500 | only slightly hemolytic | 3.7 ± 0.1 | 3.4 ± 0.2 | 5530 nM and 5500 nM |  | 
CC[C@H](C)[C@H](NC(=O)[C@H](CCCCN)NC(=O)[C@H](CCCCN)NC(=O)[C@H](C)NC(=O)[C@H](CC(C)C)NC(=O)[C@H](C)NC(=O)[C@H](C)NC(=O)[C@H](CC(C)C)NC(=O)[C@H](C)NC(=O)[C@H](CCCCN)NC(=O)[C@H](CC(C)C)NC(=O)[C@H](CC(N)=O)NC(=O)[C@@H](NC(=O)[C@H](CCCCN)NC(=O)CNC(=O)[C@H](CC(C)C)NC(=O)[C@H](CC(C)C)NC(=O)[C@H](Cc1ccc(O)cc1)NC(=O)CNC(=O)[C@H](C)NC(=O)[C@@H](N)CSSC[C@H](N)C(=O)NCCCCNc1ccnc2cc(Cl)ccc12)[C@@H](C)CC)C(=O)N[C@@H](CC(C)C)C(N)=O [compound 12] | 1000 ± 300 |  | 8.5 ± 0.5 | 2 ± 0.3 |  |  | 
CC[C@H](C)[C@H](NC(=O)[C@H](CCCCN)NC(=O)[C@H](CCCCN)NC(=O)[C@H](C)NC(=O)[C@H](CC(C)C)NC(=O)[C@H](C)NC(=O)[C@H](C)NC(=O)[C@H](CC(C)C)NC(=O)[C@H](C)NC(=O)[C@H](CCCCN)NC(=O)[C@H](CC(C)C)NC(=O)[C@H](CC(N)=O)NC(=O)[C@@H](NC(=O)[C@H](CCCCN)NC(=O)CNC(=O)[C@H](CC(C)C)NC(=O)[C@H](CC(C)C)NC(=O)[C@H](Cc1ccc(O)cc1)NC(=O)CNC(=O)[C@H](C)NC(=O)CCCCCNC(=O)CCC(=O)NCCCCNc1ccnc2cc(Cl)ccc12)[C@@H](C)CC)C(=O)N[C@@H](CC(C)C)C(N)=O [compound 10] | 800 ± 300 |  | 38 ± 2 | 19 ± 1 |  |  | 
CCN(CC)CCCC(C)Nc1ccnc2cc(Cl)ccc12 (stereo not drawn) [compound 1, chloroquine] |  | not hemolytic |  |  |  | 21 | 699
CC[C@H](C)[C@H](NC(=O)[C@H](CCCCN)NC(=O)[C@H](CCCCN)NC(=O)[C@H](C)NC(=O)[C@H](CC(C)C)NC(=O)[C@H](C)NC(=O)[C@H](C)NC(=O)[C@H](CC(C)C)NC(=O)[C@H](C)NC(=O)[C@H](CCCCN)NC(=O)[C@H](CC(C)C)NC(=O)[C@H](CC(N)=O)NC(=O)[C@@H](NC(=O)[C@H](CCCCN)NC(=O)CNC(=O)[C@H](CC(C)C)NC(=O)[C@H](CC(C)C)NC(=O)[C@H](Cc1ccc(O)cc1)NC(=O)CNC(=O)[C@H](C)NC(=O)[C@@H](N)Cc1cn(CCCCCC(=O)NCCCCNc2ccnc3cc(Cl)ccc23)nn1)[C@@H](C)CC)C(=O)N[C@@H](CC(C)C)C(N)=O [compound 11] | 1200 ± 200 |  | 23 ± 1 | 10.7 ± 0.1 |  |  | 
N-(7-Methylquinolin-4-yl)butane-1,4-diamine [compound 4] | 70 ± 20 | not hemolytic |  |  |  |  | 
CC[C@H](C)[C@H](NC(=O)[C@H](CCCCN)NC(=O)[C@H](CCCCN)NC(=O)[C@H](C)NC(=O)[C@H](CC(C)C)NC(=O)[C@H](C)NC(=O)[C@H](C)NC(=O)[C@H](CC(C)C)NC(=O)[C@H](C)NC(=O)[C@H](CCCCN)NC(=O)[C@H](CC(C)C)NC(=O)[C@H](CC(N)=O)NC(=O)[C@@H](NC(=O)[C@H](CCCCN)NC(=O)CNC(=O)[C@H](CC(C)C)NC(=O)[C@H](CC(C)C)NC(=O)[C@H](Cc1ccc(O)cc1)NC(=O)CNC(=O)[C@H](C)NC(=O)CCC(=O)NCCCCNc1ccnc2cc(Cl)ccc12)[C@@H](C)CC)C(=O)N[C@@H](CC(C)C)C(N)=O [5a] | 800 ± 100 |  | 23 ± 1 | 6.5 ± 0.4 |  |  | 
CC[C@H](C)[C@H](NC(=O)[C@H](CCCCN)NC(=O)[C@H](CCCCN)NC(=O)[C@H](C)NC(=O)[C@H](CC(C)C)NC(=O)[C@H](C)NC(=O)[C@H](C)NC(=O)[C@H](CC(C)C)NC(=O)[C@H](C)NC(=O)[C@H](CCCCN)NC(=O)[C@H](CC(C)C)NC(=O)[C@H](CC(N)=O)NC(=O)[C@@H](NC(=O)[C@H](CCCCN)NC(=O)CNC(=O)[C@H](CC(C)C)NC(=O)[C@H](CC(C)C)NC(=O)[C@H](Cc1ccc(O)cc1)NC(=O)CNC(=O)[C@H](C)N)[C@@H](C)CC)C(=O)N[C@@H](CC(C)C)C(=O)N[C@@H](CSSC[C@H](N)C(=O)NCCCCNc1ccnc2cc(Cl)ccc12)C(N)=O [compound 14] | 2300 ± 400 |  | 18.2 ± 0.8 | 7 ± 1 |  |  | 
CC[C@H](C)[C@H](NC(=O)[C@H](CCCCN)NC(=O)[C@H](CCCCN)NC(=O)[C@H](C)NC(=O)[C@H](CC(C)C)NC(=O)[C@H](C)NC(=O)[C@H](C)NC(=O)[C@H](CC(C)C)NC(=O)[C@H](C)NC(=O)[C@H](CCCCN)NC(=O)[C@H](CC(C)C)NC(=O)[C@H](CC(N)=O)NC(=O)[C@@H](NC(=O)[C@H](CCCCN)NC(=O)CNC(=O)[C@H](CC(C)C)NC(=O)[C@H](CC(C)C)NC(=O)[C@H](Cc1ccc(O)cc1)NC(=O)CNC(=O)[C@H](C)NC(=O)CCC(=O)NCCCC(C)Nc1cc(OC)cc2cccnc12)[C@@H](C)CC)C(=O)N[C@@H](CC(C)C)C(N)=O (stereo partly drawn) [3a] |  |  | 89 ± 8 | 49 ± 7 |  |  | 

— paper PMC6943437, “Coupling the Antimalarial Cell Penetrating Peptide TP10 to Classical Antimalarial Drugs Primaquine and Chloroquine Produces Strongly Hemolytic Conjugates” (Molecules, 2019)
